One data set has as its target HIV-1 RT (Human immunodeficiency virus type 1 group M subtype B, UniProt P03366). Briefly: HIV Reverse Transcriptase Assay: Inhibitor IC50 Determination. The note with it: purified recombinant enzyme, poly(rA)/oligo(dT)16 template-primer; read-out: IC50(μM) RTI. It counts as biochemical. As for the experimental part: HIV Reverse Transcriptase Assay: Inhibitor IC50 Determination
HIV-1 RT assay was carried out in 96-well Millipore MultiScreen MADVNOB50 plates using purified recombinant enzyme and a poly(rA)/oligo(dT)16 template-primer in a total volume of 50 μL. The assay constituents were 50 mM Tris/HCl, 50 mM NaCl, 1 mM EDTA, 6 mM MgCl2, 5 μM dTTP, 0.15 μCi [^3H] dTTP, 5 μg/ml poly (rA) pre annealed to 2.5 μg/ml oligo (dT)16 and a range of inhibitor concentrations in a final concentration of 10% DMSO. Reactions were initiated by adding 4 nM HIV-1 RT and after incubation at 37° C. for 30 min, they were stopped by the addition of 50 μl ice cold 20% TCA and allowed to precipitate at 4° C. for 30 min. The precipitates were collected by applying vacuum to the plate and sequentially washing with 3×200 μl of 10% TCA and 2×200 μl 70% EtOH. Finally, the plates were dried and radioactivity counted in a Packard TopCounter after the addition of 25 μl scintillation fluid per well. IC50'swere calculated by plotting % inhibition versus log10 inhibitor concentrations. Representative IC50 data has been included in Table 2.

For data set [1], the system named is HXB2-strain of HIV in MT4 cells. The data set can be described thus: Antiviral assay: protection of HIV-infected MT4 cells from cell death (MTT). The data set is classed as cell-based. The note with it: Human immunodeficiency virus 1, 120 h, MT4 cells infected with HXB2-strain of HIV, 5 days. As for the experimental part: Anti-HIV antiviral activity was assessed using an adaptation of the method of Pauwels et al. {Pauwels et al., 1988, J Virol Methods 20:309-321 }. The method is based on the ability of compounds to protect HIV-infected T lymphoblastoid cells (MT4 cells) from cell-death mediated by the infection. The endpoint of the assay was calculated as the concentration of compound at which the cell viability of the culture was preserved by 50% (‘50% inhibitory concentration’, IC50). The cell viability of a culture was determined by the uptake of soluble, yellow 3-[4,5-dimethylthiazol-2-yl]-2,5-diphenyltetrazolium bromide (MTT) and its reduction to a purple insoluble formazan salt. After solubilization, spectrophotometric methods were employed to measure the amount of formazan product. […]
A fresh solution of 5 mg/mL MTT was prepared in 0.01 M phosphate buffered saline, pH 7.2 and 20 microliters added to each culture. […] When the formazan deposit was fully solubilized by further mixing, the absorbance (OD) of the cultures was measured at 540 nm and 690 nm wavelength (690 nm readings were used as blanks for artifacts between wells). The percent protection for each treated culture was then calculated from the equation: […]

We go through 10 compounds from patent US7241794B2, “Nonnucleoside reverse transcriptase inhibitors” (RochePalo Alto LLC, priority 2003, dated 2007).

In the case of `CCc1c(CO)nn(CC)c1Oc1cc(Cl)cc(Cl)c1` [Cpd 17, [5-(3,5-Dichloro-phenoxy)-1,4-diethyl-1H-pyrazol-3-yl]-methanol], the figures for the IC50 (at HIV-1 RT; in data set [1]) were 1.66 µM and 0.0401 µM, respectively.

For `CCCc1c(CO)nn(CC)c1Oc1cc(Cl)cc(Cl)c1` [Cpd 22, [5-(3,5-Dichloro-phenoxy)-1-ethyl-4-propyl-1H-pyrazol-3-yl]-methanol], the IC50 (usually the concentration that gives 50% inhibition) on HIV-1 RT was 1.56 µM.

Consider `CCc1c(CCO)nn(C(C)C)c1Oc1cc(Cl)cc(Cl)c1` [Cpd 36, 2-[5-(3,5-Dichloro-phenoxy)-4-ethyl-1-isopropyl-1H-pyrazol-3-yl]-ethanol], for which the IC50 on HIV-1 RT amounted to 0.0383 µM.

As for `CCc1c(CNC=O)nn(C(C)C)c1Oc1cc(Cl)cc(Cl)c1` [Cpd 40, N-[5-(3,5-Dichloro-phenoxy)-4-ethyl-1-isopropyl-1H-pyrazol-3-ylmethyl]-formamide], on HIV-1 RT, the IC50 is 0.648 µM.

`CCc1c(CCN)nn(C(C)C)c1Oc1cc(Cl)cc(Cl)c1` [Cpd 48, 2-[5-(3,5-Dichloro-phenoxy)-4-ethyl-1-isopropyl-1H-pyrazol-3-yl]-ethylamine]: the IC50 at HIV-1 RT was 1.07 µM.

On to `CCn1nc(CCO)c(Cc2ccncc2)c1Oc1cc(Cl)cc(Cl)c1` [Cpd 85, 2-[5-(3,5-Dichloro-phenoxy)-1-ethyl-4-pyridin-4-ylmethyl-1H-pyrazol-3-yl]-ethanol], for which the melting point (in general, the temperature, or range, at which the solid turns liquid) was in the range of 103 to 105.8 °C.

As to `CCc1c(CC(=O)Nc2ccccc2)nn(CC)c1Oc1cc(Cl)cc(Cl)c1` [Cpd 86, 2-[5-(3,5-Dichloro-phenoxy)-1,4-iethyl-1H-pyrazol-3-yl]-N-phenyl-acetamide], the melting point is 112.2 to 115.9 °C.

With `CCc1c(CC(=O)Nc2ccccc2)nn(C(C)C)c1Oc1cc(Cl)cc(Cl)c1` [Cpd 87, 2-[5-(3,5-Dichloro-phenoxy)-4-ethyl-1-isopropyl-1H-pyrazol-3-yl]-N-phenyl-acetamide], the melting point was in the range of 118.9 to 120.9 °C.

`CCc1c(Cc2ncc[nH]2)nn(CC)c1Oc1cc(Cl)cc(Cl)c1` [Cpd 88, 5-(3,5-Dichloro-phenoxy)-1,4-diethyl-3-(1H-imidazol-2-ylmethyl)-1H-pyrazole] registered a melting point of 145 to 148 °C.

Compound `CCc1c(Cc2cnc[nH]2)nn(CC)c1Oc1cc(Cl)cc(Cl)c1` [Cpd 90, 5-(3,5-Dichloro-phenoxy)-1,4-diethyl-3-(3H-imidazol-4-ylmethyl)-1H-pyrazole] displayed a melting point of 142 to 145.2 °C.
